Several values for one entry are separate records, joined by “and”; a condition that tells them apart may be missing. Equal entries are not always repeated. Where two headings read alike, the source gives them in different places.
What was measured:
Vibrio cholerae = test system: Vibrio cholerae; design: method as in PMID 26235676, PMID 27283786, PMID 23488877; details: thus reducing the growth rates of pathogen; cited from earlier work
VchCAα = VchCAα (Vibrio cholerae, UniProt Q9KMP6); test: stopped-flow CO2 hydrase assay, VchCAα; assay type: biochemical
Sequence of VchCAα (Q9KMP6 entry or part of it): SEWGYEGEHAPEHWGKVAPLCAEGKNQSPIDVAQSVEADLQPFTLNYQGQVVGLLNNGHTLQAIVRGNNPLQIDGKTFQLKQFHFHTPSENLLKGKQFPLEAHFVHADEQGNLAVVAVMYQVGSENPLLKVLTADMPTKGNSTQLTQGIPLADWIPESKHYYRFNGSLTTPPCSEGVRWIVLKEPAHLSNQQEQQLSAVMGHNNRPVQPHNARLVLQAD

VchCAβ = VchCAβ (Vibrio cholerae, UniProt A0A086SLX8); test: biochemical
Sequence of VchCAβ (A0A086SLX8 entry or part of it): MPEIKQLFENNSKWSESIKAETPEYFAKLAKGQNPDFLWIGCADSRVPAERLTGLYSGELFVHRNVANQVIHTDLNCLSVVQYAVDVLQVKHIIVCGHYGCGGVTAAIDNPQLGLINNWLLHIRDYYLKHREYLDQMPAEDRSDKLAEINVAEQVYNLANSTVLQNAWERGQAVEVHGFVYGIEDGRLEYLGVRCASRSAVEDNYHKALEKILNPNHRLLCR

VchCAγ = VchCAγ (Vibrio cholerae, UniProt Q9KVT1); test: stopped-flow CO2 hydrase assay, VchCAγ; assay type: biochemical
Sequence of VchCAγ (Q9KVT1 1-184): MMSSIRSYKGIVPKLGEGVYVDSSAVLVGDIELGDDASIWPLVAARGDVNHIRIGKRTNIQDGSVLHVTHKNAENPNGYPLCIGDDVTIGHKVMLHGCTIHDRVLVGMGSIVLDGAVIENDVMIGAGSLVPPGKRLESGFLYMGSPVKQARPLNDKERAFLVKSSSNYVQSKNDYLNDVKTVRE

hCA II = target: T1, hCA II (Homo sapiens, UniProt P00918); test: stopped-flow CO2 hydrase assay, hCA II; assay type: biochemical; details: errors ±10 %, three assays
T1 construct: made in house
Procedure: (§1) The uncatalyzed rates were determined in the same manner and subtracted from the total observed rates.

hCA I = target: T2, hCA I (Homo sapiens, UniProt P00915); test: stopped-flow CO2 hydrase assay, hCA I; assay type: biochemical
T2 construct: made in house
T2 sequence (P00915 whole entry): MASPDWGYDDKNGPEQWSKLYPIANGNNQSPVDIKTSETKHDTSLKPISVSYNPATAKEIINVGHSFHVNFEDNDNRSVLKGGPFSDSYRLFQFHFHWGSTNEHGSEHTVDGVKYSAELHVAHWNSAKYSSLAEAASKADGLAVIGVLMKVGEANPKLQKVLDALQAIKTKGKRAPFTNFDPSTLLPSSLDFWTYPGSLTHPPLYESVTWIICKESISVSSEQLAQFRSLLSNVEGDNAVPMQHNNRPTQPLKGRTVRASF
Procedure: as §1

| Compound | effect on bicarbonate mediated virulence gene induction (Vibrio cholerae) | Ki (VchCAα) [nM] | Ki (VchCAβ) [nM] | Ki (VchCAγ; stopped-flow CO2 hydrase assay, errors ±10 %, three assays, read-out: Ki VchCA γ) [nM] | Ki (hCA II) | Ki (hCA I) [nM] | melting point [°C] | Ki (VchCAγ) [nM] | fold more active against VchCAα over hCA I (VchCAα; selectivity VchCAα vs hCA I) [fold] | fold more selective (VchCAγ) over hCA I (VchCAγ; selectivity VchCAγ vs hCA I) [fold] | fold more selective (VchCAγ) over hCA II (VchCAγ; selectivity VchCAγ vs hCA II) [fold] |
| --- | --- | --- | --- | --- | --- | --- | --- | --- | --- | --- | --- |
| CCOc1ccc2nc(S(N)(=O)=O)sc2c1 [EZA, ethoxzolamide] | suppressed bicarbonate mediated virulence gene induction |  |  |  |  |  |  |  |  |  |  |
| NCC(=O)Nc1ccc(S(N)(=O)=O)cc1 [compound 10, 2‐amino‐N‐(4‐sulfamoylphenyl)acetamide] |  | 8 | 3170 | 744 |  |  |  |  |  |  |  |
| C[C@H](N)C(=O)Nc1ccc(S(N)(=O)=O)cc1 [compound 11, (S)‐2‐Amino‐N‐(4‐sulfamoylphenyl)propanamide] |  | 35.7 | 381 |  | 383 nM | 869 | 216 to 217 | 23.7 |  |  |  |
| CC(C)[C@H](N)C(=O)Nc1ccc(S(N)(=O)=O)cc1 [compound 12, (S)‐2‐amino‐3‐methyl‐N‐(4‐sulfamoylphenyl)butanamide] |  | 659 | 362 |  | 183 nM | 609 |  | 88.6 |  |  |  |
| NS(=O)(=O)c1ccc(NC(=O)CNC(=O)c2ccccc2)cc1 [compound 13, (S)‐N‐(2‐Oxo‐2‐((4‐sulfamoylphenyl)amino)ethyl)benzamide] |  | 0.4 | 884 |  | 19.9 nM | 524 | 214 to 216 | 563 |  |  |  |
| C[C@H](NC(=O)c1ccccc1)C(=O)Nc1ccc(S(N)(=O)=O)cc1 [compound 14, (S)‐N‐(1‐oxo‐1‐((4‐sulfamoylphenyl)amino)propan‐2‐yl)benzamide] |  | 9.5 | 3000 |  | 4.4 nM | 46.1 | 260 to 261 | 80.5 |  |  |  |
| CC(C)[C@H](NC(=O)c1ccccc1)C(=O)Nc1ccc(S(N)(=O)=O)cc1 [compound 15, (S)‐N‐(3‐methyl‐1‐oxo‐1‐((4‐sulfamoylphenyl)amino)butan‐2‐yl)benzamide] |  | 9.2 | 389 |  | 3.7 nM | 51.5 | 279 to 280 | 24.3 |  |  |  |
| NS(=O)(=O)c1ccc(NC(=O)CNC(=O)c2ccccc2Cl)cc1 [compound 20, 2‐Chloro‐N‐(2‐oxo‐2‐((4‐sulfamoylphenyl)amino)ethyl)benzamide] |  | 8.9 | 796 |  | 29.6 nM | 564 | 249 to 251 | 8930 |  |  |  |
| NS(=O)(=O)c1ccc(NC(=O)CNC(=O)c2cccc(Cl)c2)cc1 [compound 21, 3‐Chloro‐N‐(2‐oxo‐2‐((4‐sulfamoylphenyl)amino)ethyl)benzamide] |  | 18.5 | 82.8 |  | 14.7 nM | 127 | 262 to 264 | 364 |  |  |  |
| NS(=O)(=O)c1ccc(NC(=O)CNC(=O)c2ccc(Cl)cc2)cc1 [compound 22, 4‐Chloro‐N‐(2‐oxo‐2‐((4‐sulfamoylphenyl)amino)ethyl)benzamide] |  | 9.6 | 59.7 |  | 3.3 nM | 81.3 | 226 to 228 | 282 |  |  |  |
| NS(=O)(=O)c1ccc(NC(=O)CNC(=O)c2ccco2)cc1 [compound 31, N‐(2‐Oxo‐2‐((4‐sulfamoylphenyl)amino)ethyl)furan‐2‐carboxamide] |  | 6.8 | 460 |  | 22.2 nM | 621 | 238 to 240 | 7750 |  |  |  |
| NS(=O)(=O)c1ccc(NC(=O)CNC(=O)c2cccs2)cc1 [compound 32, N‐(2‐Oxo‐2‐((4‐sulfamoylphenyl)amino)ethyl)thiophene‐2‐carboxamide] |  | 4.8 | 636 |  | 38.5 nM | 430 | 265 to 267 | 6020 |  |  |  |
| NS(=O)(=O)c1ccc(CNC(=O)CNC(=O)c2ccccc2)cc1 [compound 36, N‐(2‐Oxo‐2‐((4‐sulfamoylbenzyl)amino)ethyl)benzamide] |  | 8.2 | 82.8 |  | 368 nM | 754 | 211 to 213 | 230 |  |  |  |
| C[C@H](NC(=O)c1ccccc1)C(=O)NCc1ccc(S(N)(=O)=O)cc1 [compound 37, (S)‐N‐(1‐Oxo‐1‐((4‐sulfamoylbenzyl)amino)propan‐2‐yl)benzamide] |  | 56.5 | 93.3 |  | 302 nM | 722 | 178 to 180 | 261 |  |  |  |
| CC(C)[C@H](NC(=O)c1ccccc1)C(=O)NCc1ccc(S(N)(=O)=O)cc1 [compound 38, (S)‐N‐(3‐Methyl‐1‐oxo‐1‐((4‐sulfamoylbenzyl)amino)butan‐2‐yl)benzamide] |  | 37.6 | 94.6 |  | 170 nM | 505 | 213 to 215 | 332 |  |  |  |
| NS(=O)(=O)c1ccc(CNC(=O)CNC(=O)c2ccco2)cc1 [compound 39, N‐(2‐Oxo‐2‐((4‐sulfamoylbenzyl)amino)ethyl)furan‐2‐carboxamide] |  | 35.7 | 394 |  | 316 nM | 1440 |  | 734 |  |  |  |
| C[C@H](NC(=O)c1ccco1)C(=O)NCc1ccc(S(N)(=O)=O)cc1 [compound 40, (S)‐N‐(1‐Oxo‐1‐((4‐sulfamoylbenzyl)amino)propan‐2‐yl)furan‐2‐carboxamide] |  | 8.5 | 612 |  | 6100 nM and 6090 nM | 6280 |  | 92.8 | ~730 | ~70 | ~70 |
| CC(C)[C@H](NC(=O)c1ccco1)C(=O)NCc1ccc(S(N)(=O)=O)cc1 [compound 41, (S)‐N‐(3‐Methyl‐1‐oxo‐1‐((4‐sulfamoylbenzyl)amino)butan‐2‐yl)furan‐2‐carboxamide] |  | 97.8 | 707 |  | 19.6 nM | 215 | 226 to 228 | 95.3 |  |  |  |
| NS(=O)(=O)c1ccc(CNC(=O)CNC(=O)c2cccs2)cc1 [compound 42, N‐(2‐Oxo‐2‐((4‐sulfamoylbenzyl)amino)ethyl)thiophene‐2‐carboxamide] |  | 9.3 | 627 |  | 87.3 nM | 828 | 220 to 222 | 244 |  |  |  |
| C[C@H](NC(=O)c1cccs1)C(=O)NCc1ccc(S(N)(=O)=O)cc1 [compound 43, (S)‐N‐(1‐Oxo‐1‐((4‐sulfamoylbenzyl)amino)propan‐2‐yl)thiophene‐2‐carboxamide] |  | 63.1 | 691 |  | 71.1 nM | 651 | 221 to 223 | 93.2 |  |  |  |
| CC(C)[C@H](NC(=O)c1cccs1)C(=O)NCc1ccc(S(N)(=O)=O)cc1 [compound 44, (S)‐N‐(3‐Methyl‐1‐oxo‐1‐((4‐sulfamoylbenzyl)amino)butan‐2‐yl)thiophene‐2‐carboxamide] |  | 30.5 | 94.4 |  | 18.4 nM | 94.9 | 144 to 146 | 84.8 |  |  |  |
